What is called EC50 is the concentration needed to bring the measured effect to its halfway point. A low value points to an effect from little substance. The CC50 is the concentration at which the toxic effect on the cells reaches its halfway point.

One data set deals with HIV. As to conditions: literature report; cited from earlier work.
In another data set the test system is HCV type 1b replicon. Briefly: HCV replicon assay (Huh-Luc, luciferase readout). Format: cell-based. As to conditions: Hepatitis C virus, 72 h; Huh-Luc replicon cells, three days incubation, luciferase activity. The procedure: (§1) The in vitro antiviral activity against HCV of the compound of formula I was tested in a cellular HCV replicon system based on Lohmann et al. (1999) Science 285:110-113, with the further modifications described by Krieger et al. (2001) Journal of Virology 75: 4614-4624 (incorporated herein by reference), which is further exemplified in the examples section. This model, while not a complete infection model for HCV, is widely accepted as the most robust and efficient model of autonomous HCV RNA replication currently available. It will be appreciated that it is important to distinguish between compounds that specifically interfere with HCV functions from those that exert cytotoxic or cytostatic effects in the HCV replicon model, and as a consequence cause a decrease in HCV RNA or linked reporter enzyme concentration. […]
The replicon cells were plated in 384-well plates in the presence of the test and control compounds which were added in various concentrations. Following an incubation of three days, HCV replication was measured by assaying luciferase activity (using standard luciferase assay substrates and reagents and a Perkin Elmer ViewLux™ ultraHTS microplate imager). […] The inhibitory activity of the compound on luciferase activity was monitored on the Huh-Luc cells, enabling a dose-response curve for the test compound. […]

Data set [1] can be described thus: Cytotoxicity in Huh-7 cells. The class given is cell-based. As to conditions: human. The procedure: as §1, with “concentration. Assays are known in the field for the evaluation of cellular cytotoxicity based for example on the activity of mitochondrial enzymes using fluorogenic redox dyes such as resazurin. Furthermore, cellular counter screens exist for the evaluation of non-selective inhibition of linked reporter gene activity, such as firefly luciferase.” for “concentration.”

For `O=c1ccn([C@@H]2O[C@H](CO)[C@@H](O)[C@]23CCO3)c(=O)[nH]1` [1-(2-O,2-C-ethano-β-D-ribofuranosyl)uracil], the “activity against HIV” value in the data set on HIV was “no activity was found”.

In the data set on HCV type 1b replicon, `CCCCOC(=O)[C@H](C)N[P@](=O)(OC[C@H]1O[C@@H](n2ccc(=O)[nH]c2=O)[C@@]2(CCO2)[C@@H]1O)Oc1ccccc1` [Compound P1, butyl N—[(S)-{[(4R,5R,7R,8R)-5-(2,4-dioxo-3,4-dihydro-pyrimidin-1(2H)-yl)-8-hydroxy-1,6-dioxaspiro[3.4]oct-7-yl]methoxy}(phenoxy)-phosphoryl]-L-alaninate] had a half-maximal effective concentration (EC50) of 2.51 µM. Besides, the CC50 in data set [1] is greater than 98 µM.

Turning to `Cc1cn([C@@H]2O[C@H](CO)[C@@H](O)[C@]23CCO3)c(=O)[nH]c1=O` [1-(2-O,2-C-ethano-β-D-ribofuranosyl)thymine], the “activity against HIV” value in the data set on HIV is “no activity was found”.

(Values after patent US9012428B2, “Uracyl spirooxetane nucleoside phosphoramidates” (Janssen Products, LP, priority 2010, dated 2015).)
